Results published in ChEMBL document CHEMBL4673353, “Switching a Xanthine Oxidase Inhibitor to a Dual-Target Antagonist of P2Y and P2Y as an Oral Antiplatelet Agent with a Wider Therapeutic Window in Rats than Ticagrelor” (J Med Chem, 2020).

Assays:
[1] = Apparent volume of distribution in male Sprague-Dawley rat at 10 mg/kg, po administered as single dose by LC-MS analysis; format: ADME, organism-based; settings: in vivo
[2] = Stability of compound in simulated intestinal fluid assessed as parent compound remaining at 10 uM after 12 hrs by HPLC analysis relative to control
[3] = Tmax in male Sprague-Dawley rat at 10 mg/kg, po administered as single dose by LC-MS analysis; format: ADME, organism-based; settings: in vivo
[4] = molecular target: T1, CYP1A2 (Homo sapiens, UniProt P05177); experiment: Inhibition of CYP1A2 in human liver microsomes at 10 uM using phenacetin as substrate preincubated for 5 mins followed by NADPH generating system addition and measured after 120 mins by LC-MS/MS analysis relative to control; format: ADME; settings: probe phenacetin, time 125 min
T1 sequence (P05177 whole entry): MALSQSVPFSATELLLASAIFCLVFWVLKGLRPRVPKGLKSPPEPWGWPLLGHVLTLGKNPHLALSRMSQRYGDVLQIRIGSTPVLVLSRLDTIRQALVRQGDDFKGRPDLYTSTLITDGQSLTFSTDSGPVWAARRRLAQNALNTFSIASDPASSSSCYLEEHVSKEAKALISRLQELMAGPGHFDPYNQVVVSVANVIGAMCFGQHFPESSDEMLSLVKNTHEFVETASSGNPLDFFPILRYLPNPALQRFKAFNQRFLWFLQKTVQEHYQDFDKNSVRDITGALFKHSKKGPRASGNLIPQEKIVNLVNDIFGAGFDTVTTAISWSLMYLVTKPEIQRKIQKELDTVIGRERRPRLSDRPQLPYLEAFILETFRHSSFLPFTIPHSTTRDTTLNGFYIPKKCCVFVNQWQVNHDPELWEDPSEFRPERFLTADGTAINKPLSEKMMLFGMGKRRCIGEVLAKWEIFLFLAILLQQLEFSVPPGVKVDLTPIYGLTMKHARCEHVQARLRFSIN

[5] = molecular target: T2, CYP2A6 (Homo sapiens, UniProt P11509); experiment: Inhibition of CYP2A6 in human liver microsomes at 10 uM using coumarin as substrate preincubated for 5 mins followed by NADPH generating system addition and measured after 120 mins by LC-MS/MS analysis relative to control; format: ADME; settings: probe coumarin, time 125 min
T2 sequence (P11509 whole entry): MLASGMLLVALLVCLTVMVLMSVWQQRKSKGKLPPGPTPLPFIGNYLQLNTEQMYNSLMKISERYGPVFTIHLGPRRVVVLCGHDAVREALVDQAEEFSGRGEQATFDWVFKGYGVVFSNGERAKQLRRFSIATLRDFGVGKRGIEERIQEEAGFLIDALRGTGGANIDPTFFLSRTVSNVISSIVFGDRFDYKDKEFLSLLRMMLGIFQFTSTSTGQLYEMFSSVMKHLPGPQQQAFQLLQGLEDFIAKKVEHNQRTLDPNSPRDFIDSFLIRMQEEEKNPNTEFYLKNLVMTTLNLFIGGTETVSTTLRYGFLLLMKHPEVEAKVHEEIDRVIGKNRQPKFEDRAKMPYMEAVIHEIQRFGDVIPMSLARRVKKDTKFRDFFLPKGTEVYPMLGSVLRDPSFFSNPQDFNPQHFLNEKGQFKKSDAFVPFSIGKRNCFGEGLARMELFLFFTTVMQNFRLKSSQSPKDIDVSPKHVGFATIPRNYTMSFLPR

[6] = Elimination half-life in male Sprague-Dawley rat at 10 mg/kg, po administered as single dose by LC-MS analysis; format: ADME, organism-based; settings: in vivo, read-out: beta t1/2 (converted)
[7] = molecular target: CYP3A4 (Homo sapiens, UniProt P08684); experiment: Inhibition of CYP3A4 in human liver microsomes at 10 uM using testosterone as substrate preincubated for 5 mins followed by NADPH generating system addition and measured after 120 mins by LC-MS/MS analysis relative to control; format: ADME; settings: probe testosterone, time 125 min
Chain of CYP3A4 (P08684 whole entry): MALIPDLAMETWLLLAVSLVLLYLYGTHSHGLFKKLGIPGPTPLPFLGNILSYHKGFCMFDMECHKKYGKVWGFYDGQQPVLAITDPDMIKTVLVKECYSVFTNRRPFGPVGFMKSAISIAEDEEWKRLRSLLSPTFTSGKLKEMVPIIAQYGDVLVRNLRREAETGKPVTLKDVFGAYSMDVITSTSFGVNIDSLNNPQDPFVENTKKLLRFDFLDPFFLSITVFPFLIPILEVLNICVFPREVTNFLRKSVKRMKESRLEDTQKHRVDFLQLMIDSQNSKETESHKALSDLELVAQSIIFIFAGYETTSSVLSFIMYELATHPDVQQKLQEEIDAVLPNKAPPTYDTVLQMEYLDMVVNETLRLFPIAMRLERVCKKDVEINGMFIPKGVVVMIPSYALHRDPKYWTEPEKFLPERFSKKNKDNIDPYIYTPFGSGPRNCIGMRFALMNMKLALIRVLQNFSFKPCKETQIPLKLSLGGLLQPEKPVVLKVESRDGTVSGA

[8] = Stability of compound in simulated gastric fluid assessed as parent compound remaining at 10 uM after 12 hrs by HPLC analysis relative to control
[9] = Cmax in male Sprague-Dawley rat at 10 mg/kg, po administered as single dose by LC-MS analysis; format: ADME, organism-based; set-up: route oral, dose 10 mg/kg; settings: in vivo
[10] = Clearance in male Sprague-Dawley rat at 10 mg/kg, po administered as single dose by LC-MS analysis; format: ADME, organism-based; settings: in vivo
[11] = Metabolic stability of compound in rat liver microsomes assessed as elimination half-life at 0.2 uM in presence of NADPH by LC-MS/MS analysis; format: ADME, Microsome; settings: read-out: beta t1/2
[12] = AUC (0 to infinity) in male Sprague-Dawley rat at 10 mg/kg, po administered as single dose by LC-MS analysis; format: ADME, organism-based; set-up: route oral, time infinity, dose 10 mg/kg; settings: in vivo
[13] = molecular target: CYP2C19 (Homo sapiens, UniProt P33261); experiment: Inhibition of CYP2C19 in human liver microsomes at 10 uM using S-mephenytoin as substrate preincubated for 5 mins followed by NADPH generating system addition and measured after 120 mins by LC-MS/MS analysis relative to control; format: ADME; settings: probe S-mephenytoin, time 125 min
Chain of CYP2C19 (P33261 whole entry): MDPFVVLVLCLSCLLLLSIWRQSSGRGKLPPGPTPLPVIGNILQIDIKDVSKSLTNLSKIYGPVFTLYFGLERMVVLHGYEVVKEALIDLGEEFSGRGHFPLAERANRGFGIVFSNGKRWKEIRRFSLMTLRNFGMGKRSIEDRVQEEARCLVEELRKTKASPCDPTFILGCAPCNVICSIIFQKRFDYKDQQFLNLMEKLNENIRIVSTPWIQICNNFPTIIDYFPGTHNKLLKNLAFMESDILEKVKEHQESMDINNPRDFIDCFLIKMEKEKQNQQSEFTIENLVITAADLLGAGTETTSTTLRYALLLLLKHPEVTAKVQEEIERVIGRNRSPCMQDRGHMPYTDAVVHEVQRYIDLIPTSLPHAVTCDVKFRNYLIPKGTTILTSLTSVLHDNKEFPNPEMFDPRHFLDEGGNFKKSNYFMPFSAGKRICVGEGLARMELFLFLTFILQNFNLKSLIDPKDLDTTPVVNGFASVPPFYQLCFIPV

[14] = molecular target: CYP2D6 (Homo sapiens, UniProt P10635); experiment: Inhibition of CYP2D6 in human liver microsomes at 10 uM using dextromethorphan as substrate preincubated for 5 mins followed by NADPH generating system addition and measured after 120 mins by LC-MS/MS analysis relative to control; format: ADME; settings: probe dextromethorphan, time 125 min
Chain of CYP2D6 (P10635 whole entry): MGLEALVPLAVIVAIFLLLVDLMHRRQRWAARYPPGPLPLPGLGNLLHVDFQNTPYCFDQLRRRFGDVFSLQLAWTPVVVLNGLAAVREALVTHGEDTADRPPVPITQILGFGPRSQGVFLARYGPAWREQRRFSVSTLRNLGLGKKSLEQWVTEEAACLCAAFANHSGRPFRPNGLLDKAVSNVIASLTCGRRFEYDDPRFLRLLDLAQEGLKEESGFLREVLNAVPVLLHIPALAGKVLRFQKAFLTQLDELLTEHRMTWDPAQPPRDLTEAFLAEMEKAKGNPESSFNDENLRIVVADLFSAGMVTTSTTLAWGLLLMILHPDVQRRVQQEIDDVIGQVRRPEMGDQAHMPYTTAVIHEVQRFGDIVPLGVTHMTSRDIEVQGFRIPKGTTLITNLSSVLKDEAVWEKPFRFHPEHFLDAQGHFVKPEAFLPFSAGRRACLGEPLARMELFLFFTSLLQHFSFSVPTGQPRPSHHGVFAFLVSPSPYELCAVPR

[15] = Metabolic stability of compound in human liver microsomes assessed as elimination half-life at 0.2 uM in presence of NADPH by LC-MS/MS analysis; format: ADME, Microsome; settings: read-out: beta t1/2
[16] = molecular target: CYP2C9 (Homo sapiens, UniProt P11712); experiment: Inhibition of CYP2C9 in human liver microsomes at 10 uM using tolbutamide as substrate preincubated for 5 mins followed by NADPH generating system addition and measured after 120 mins by LC-MS/MS analysis relative to control; format: ADME; settings: probe tolbutamide, time 125 min
Chain of CYP2C9 (P11712 whole entry): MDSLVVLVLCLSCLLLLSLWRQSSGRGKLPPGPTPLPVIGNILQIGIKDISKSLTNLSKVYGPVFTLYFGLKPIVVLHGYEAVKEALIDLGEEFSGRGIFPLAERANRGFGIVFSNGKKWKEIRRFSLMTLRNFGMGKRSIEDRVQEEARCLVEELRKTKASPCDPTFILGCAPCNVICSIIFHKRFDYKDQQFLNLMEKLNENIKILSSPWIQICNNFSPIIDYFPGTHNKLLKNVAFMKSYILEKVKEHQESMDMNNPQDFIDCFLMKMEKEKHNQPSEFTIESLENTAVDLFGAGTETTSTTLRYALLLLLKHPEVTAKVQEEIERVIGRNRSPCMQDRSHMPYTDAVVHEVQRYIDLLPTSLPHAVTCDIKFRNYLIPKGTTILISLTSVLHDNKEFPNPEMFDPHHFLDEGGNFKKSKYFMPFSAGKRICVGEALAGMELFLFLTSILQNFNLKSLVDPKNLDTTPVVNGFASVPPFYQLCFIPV

[17] = system: Plasma; experiment: Antiplatelet activity in rabbit platelet-rich plasma assessed as inhibition of ADP-induced platelet aggregation preincubated for 5 mins followed by ADP addition measured every 1 min for up to 6 mins by microplate reader analysis; format: functional, cell-free; settings: Oryctolagus cuniculus
[18] = molecular target: CYP2E1 (Homo sapiens, UniProt P05181); experiment: Inhibition of CYP2E1 in human liver microsomes at 10 uM using chlorzoxazone as substrate preincubated for 5 mins followed by NADPH generating system addition and measured after 120 mins by LC-MS/MS analysis relative to control; format: ADME; settings: probe chlorzoxazone, time 125 min
Chain of CYP2E1 (P05181 whole entry): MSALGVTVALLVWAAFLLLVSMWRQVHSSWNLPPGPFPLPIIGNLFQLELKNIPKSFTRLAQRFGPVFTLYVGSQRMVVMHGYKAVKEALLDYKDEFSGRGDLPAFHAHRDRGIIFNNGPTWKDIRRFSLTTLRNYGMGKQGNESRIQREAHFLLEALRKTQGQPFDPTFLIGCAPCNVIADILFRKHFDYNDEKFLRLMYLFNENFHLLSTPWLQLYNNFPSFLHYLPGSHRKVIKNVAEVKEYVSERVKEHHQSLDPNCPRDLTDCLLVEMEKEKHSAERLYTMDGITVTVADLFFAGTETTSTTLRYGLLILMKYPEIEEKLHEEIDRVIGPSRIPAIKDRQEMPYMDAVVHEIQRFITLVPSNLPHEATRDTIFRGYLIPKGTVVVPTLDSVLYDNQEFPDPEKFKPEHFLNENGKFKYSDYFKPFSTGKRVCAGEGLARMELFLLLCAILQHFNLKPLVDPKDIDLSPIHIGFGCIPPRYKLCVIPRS

[19] = Metabolic stability of compound in rat liver microsomes assessed as intrinsic clearance per mg protein at 0.2 uM in presence of NADPH measured up to 90 mins by LC-MS/MS analysis; format: ADME, Microsome; settings: 1.5 h
[20] = Toxicity in Sprague-Dawley rat model of tail-snip bleeding assessed as bleeding time at 10 mg/kg, po administered via gavage as single dose measured within 2 hrs post tail snip (reference value: 17.69 min); format: organism-based; settings: in vivo
[21] = Drug metabolism in human liver microsome assessed as 1-[(4-Cyanobenzyl)oxy]-2-(3-cyanophenyl)-4-methyl-1H-imidazole-5-carboxylic acid formation at 0.2 uM in presence of NADPH measured up to 90 mins by LC-MS/MS analysis; format: ADME; settings: microsomes, 1.5 h

SMILES | Vz [1] [L/kg] | Stability [2] [%] | Tmax [3] [h] | inhibition at 2 h, 10 µM [4] [%] | inhibition at 2 h, 10 µM [5] [%] | half-life [6] [h] | inhibition at 2 h, 10 µM [7] [%] | Stability [8] [%] | Cmax [9] [ng/mL] | CL/F [10] [mL/min/kg] | half-life at 0.2 µM [11] [h] | AUC(0-inf) [12] [ng·h/mL] | inhibition at 2 h, 10 µM [13] [%] | inhibition at 2 h, 10 µM [14] [%] | half-life at 0.2 µM [15] [h] | inhibition at 2 h, 10 µM [16] [%] | IC50 [17] [µM] | inhibition at 2 h, 10 µM [18] [%] | further results
Cc1nc(-c2cccc(C#N)c2)n(OCc2ccc(C#N)cc2)c1C(=O)O | 239.6 | 73 | 0.167 | 0.11 | 3.64 | 13.1 | 7.4 | 90 | 214 | 261 | > 2 | 809 | 1.97 | 2.42 | > 2 | 0.41 | 3.88 | 6.79 | –
CCOC(=O)c1c(C)nc(-c2cccc(C#N)c2)n1OCc1ccc(C#N)cc1 | 190.56 | 93 | 0.46 | 3.85 | 7.69 | 13.8 | 2.16 | 90 | 68 | 207 | 0.385 | 1140 | 4.52 | 31.7 | 2.01 | 0.024 | 4.24 | 8.68 | CLH [19]: 0.06 mL/min; Time [20]: 33.94 min; Drug metabolism [21]: Metabolite_Detected
